The values below come from US20050020544A1, “Bicyclic CB2 cannabinoid receptor ligands” (priority 2002, published 2005).

Molecules are shown by their SMILES.

Data set [1] has as its system C57/BL male mice. The data set is described as follows: MPTP model for Parkinson's disease, TH immunoreactivity in SNpc. The class given is in vivo, mouse. As to conditions: 20 mg/kg i.p., once before first MPTP, day 7. As for the experimental part: The mice (C57/BL male mice, average weight 30 g, Harlan, Israel) were administered i.p. with 4 injections of MPTP (Sigma, USA) (20 mg/kg, 5 ml/kg) in saline (Teva Medical Israel) at 2 hours interval on day 1. The treatment groups, including: (a) Saline, untreated, (b) MPTP, untreated, (c) Vehicle (1:20of CREMOPHOR EL®:ethanol), 5 ml/kg i.p., and (d) test compounds, were administered i.p. once just before the first MPTP administration. Seven days following the MPTP treatment the animals were sacrificed (by i.p. administration of pentobarbitone sodium CTS Israel 100 mg/kg) and their brains removed for tyrosine hydroxylase (TH) detection using immunohistochemistry technique.
Brains were fixed by cardiac perfusion with 4% Paraformaldehyde followed by immersion of the brain in the same fixative for at least 72 hours. Then brains were washed with PBS and transferred to 30% sucrose in PBS until they sank. After the brains sink in the sucrose, they were frozen using the cryostat special fast freezing (−60° C.). […] Quantitative analysis was performed by counting of immunoreactive (IR) cells at the widest dimension of the SNpc lateral to the roots of the third cranial nerve separating medial and lateral SN at the level of interpreduncular nucleus. The amount of the labeling at the striatum level was evaluated using computerized image analysis system.
All data are expressed as mean±SD. […]

Data set [2] concerns ICR male mice. The data set is described as follows: Development of tolerance on repeated administration, tail flick model. As to conditions: 10 mg/kg twice daily i.p. As for the experimental part:
ICR male mice (20-30 g average body weight, Harlan, Israel) were injected i.p. at the volume dose of 5 ml/kg. Each treatment group contained at least 6 animals. Morphine HCl was used as positive control at the final dose of 5 mg/kg. Its vehicle, saline, was also included as control. The test compounds were dissolved in CREMOPHOR EL®:ethanol and diluted 1:20 in saline prior to injection, this second type of vehicle was also included as negative control. The final dose injected varied from 0.1 to 10 mg/kg. At predetermined time points after treatment injection, the animals were placed in the tail flick system (Socrel, model DS 20). Animals were gently held while their tails were located above the photoelectric cell. The tails were then illuminated (21V) at 2 cm from the distal tip and the latency time, measured in seconds, was recorded in duplicates. At the end of the study, the animals were euthanized by i.p. injection of 100 mg/kg sodium pentobarbitone.
Tolerance was assessed in the tail flick model above described. Briefly, the test compounds were administered twice daily i.p. for up to 10 days to groups of 10 animals each. The noxious pain threshold was measured as previously described in example 13 thirty minutes after the first drug administration on days 1, 4, 8 and 10. Results are expressed as mean latency time till the animal flicked its tail±SE. The differences between the latency times or the % of animals showing analgesia among various treatment groups was analyzed by analysis of variance (ANOVA) followed by post-hoc Tukey's test (for latency) or Fisher's exact test (for % animals). A value of p<0.05 is considered to be statistically significant.

In data set [3] the test system is Male ICR mice. The data set is described as follows: Rotarod locomotor ability. As to conditions: 10 mg/kg i.p. It is filed as in vivo, mouse. As for the experimental part:
The effect of test compounds on overall locomotor ability was assessed in a second experimental setup, where the animals were submitted to a functional test using the rotarod apparatus as described by Rozas et al. (Rozas G. et al., J. of Neuroscience Methods 83: 165-75, 1998). The animals, male ICR mice (average body weight 40 g, Harlan, Israel), were trained for 4 days before beginning the experiment. Their task was to stay on the accelerating rod without falling for 12 minutes (3 minutes at each speed). The tested speeds were: 15, 19, 23 and 27 rpm. Animal performance on the rod was scored as follows: each animal could obtain a maximum of 3 points (1 for each minute) for full walking on the rod at each speed. Therefore, an animal could get a maximum score of 12 points (3 for each speed). Catching the circling beam of the rod without walking subtracted 0.5 points for every 3 circles circled by the animal. […] After proper training, at least 6 animals per group were administered i.p. with various doses of test compounds and controls, at volume dose of 5 ml/kg. Score was determined in the rotarod apparatus at time zero prior to compound injection and 30 minutes, 3 and 24 hours after compound or vehicle administration.
Results are expressed as mean±SD and the differences between vehicle and treatments are compared by ANOVA, followed by post-hoc Tukey's test. […] This effect disappeared at later time points with average scores of 9.7 and 11.9 at 3 and 24 hours respectively.

As for `CCCCCCC(C)(C)c1cc(OC)c(C2C=C(CO)C3CC2C3(C)C)c(OC)c1` (single isomer, unassigned; (+)) [HU-308, (+) {4-[4-(1,1-dimethylheptyl)-2,6-dimethoxy-phenyl]-6,6-dimethyl-bicyclo[3.1.1]hept-2-en-2-yl}-methanol, reference compound], the “SN dopaminergic (TH-IR) cells rescued from MPTP toxicity” value in data set [1] is recorded as “about 43%”.
As for `CCCCCCC(C)(C)c1cc(O)c(C2CC(=O)C3CC2C3(C)C)c(O)c1` (single isomer, unassigned; (-)) [Compound A, (−)-4-[4-(1,1-Dimethyl-heptyl)2,6-dihydroxy-phenyl]-6,6-dimethyl-bicyclo[3.1.1)heptan-2-one], the development of tolerance result in data set [2] (20 administrations) was “did not cause the development of tolerance”. The “% of animals showing increased analgesia” value worked out at 80% in data set [2] (day 10) and 88% in data set [2] (day one). For the same compound, the latency time in data set [2] (day 10) turned out to be 7 s; in data set [2] (day one) it was 8.1 s. Moreover, the rotarod average score in data set [3] (3 hours) came to 9.7; in data set [3] (24 hours), 11.9; in data set [3] (thirty minutes, maximal score 12), 5.6.
